The text below walks through data of patent US20230115515A1, “PYRAZOLYLPROPANAMIDE COMPOUNDS AND USES THEREOF FOR TREATMENT OF PROSTATE CANCER” (priority 2020, published 2023).

Molecules are shown by their SMILES. pIC50, pKi: −log10 of the molar value.

Data set [1] can be described thus: Metabolic stability in rat liver microsomes (phase I and II). It is filed as in vitro ADME. Particulars: for half-life at 1 µM: read-out: RLM T1/2. In general terms: Liver microsomes are vesicles of endoplasmic reticulum, rich in cytochrome P450 enzymes.
The next data set concerns the target T1, hAR-LBD (633-919) (Homo sapiens, UniProt P10275).
T1 sequence (P10275 633-919): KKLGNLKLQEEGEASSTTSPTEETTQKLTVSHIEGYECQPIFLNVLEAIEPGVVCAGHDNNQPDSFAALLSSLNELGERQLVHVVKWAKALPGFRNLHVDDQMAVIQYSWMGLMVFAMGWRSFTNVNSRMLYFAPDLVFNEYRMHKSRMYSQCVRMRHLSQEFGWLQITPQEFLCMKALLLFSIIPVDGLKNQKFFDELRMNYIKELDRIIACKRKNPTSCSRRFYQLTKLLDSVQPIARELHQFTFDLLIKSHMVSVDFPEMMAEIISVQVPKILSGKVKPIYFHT
Kind of data set: Ligand binding assay (Ki), [3H]mibolerone competition (Table A).

For another data set, the target named is CMV-hAR (Homo sapiens, UniProt P10275). Briefly: cell-based. Particulars: read-out: Wt. IC50.
Chain of CMV-hAR (P10275 whole entry): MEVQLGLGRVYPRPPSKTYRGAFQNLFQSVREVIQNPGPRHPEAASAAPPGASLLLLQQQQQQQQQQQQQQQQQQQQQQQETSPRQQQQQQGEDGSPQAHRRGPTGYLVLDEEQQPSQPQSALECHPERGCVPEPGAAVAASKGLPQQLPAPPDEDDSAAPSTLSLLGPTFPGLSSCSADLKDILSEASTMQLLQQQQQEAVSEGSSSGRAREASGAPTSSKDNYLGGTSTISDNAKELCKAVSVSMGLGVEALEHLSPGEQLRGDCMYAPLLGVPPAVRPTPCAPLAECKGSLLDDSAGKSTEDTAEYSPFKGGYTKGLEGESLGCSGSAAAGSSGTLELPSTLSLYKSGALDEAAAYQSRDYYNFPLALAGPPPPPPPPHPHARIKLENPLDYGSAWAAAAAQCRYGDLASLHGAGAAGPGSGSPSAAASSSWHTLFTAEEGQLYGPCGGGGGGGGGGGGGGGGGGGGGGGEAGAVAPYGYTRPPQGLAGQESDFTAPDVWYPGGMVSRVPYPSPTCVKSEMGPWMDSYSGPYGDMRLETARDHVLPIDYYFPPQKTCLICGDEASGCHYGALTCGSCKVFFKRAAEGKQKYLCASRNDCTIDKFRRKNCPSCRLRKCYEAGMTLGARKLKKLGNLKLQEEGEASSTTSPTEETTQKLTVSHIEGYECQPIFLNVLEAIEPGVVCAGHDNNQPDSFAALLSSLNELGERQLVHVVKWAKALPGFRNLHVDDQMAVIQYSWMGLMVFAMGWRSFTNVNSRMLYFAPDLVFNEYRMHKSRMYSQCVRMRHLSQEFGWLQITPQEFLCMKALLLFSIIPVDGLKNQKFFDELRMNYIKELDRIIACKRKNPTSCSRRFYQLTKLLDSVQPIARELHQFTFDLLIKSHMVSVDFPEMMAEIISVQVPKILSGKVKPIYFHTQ
Data set [2] deals with ventral prostate (VP) and seminal vesicle (SV) weights. Briefly: Hershberger assay in intact rats. It is filed as in vivo, rat. Here is the method: FIGS. 7A and 7B depict that SARDs and pan-antagonists inhibited androgen-dependent organs in rats. FIGS. 7 A and 7B show the reduction of VP and SV weights following the treatment of intact rats with 20 mg/kg (mpk) po daily of antagonist or vehicle for 14 days (n=5/group). Rats were sacrificed at the end of the treatment period and weights of prostate and SVs were measured and normalized to body weight.
Male rats (6-8 weeks old) were randomized into groups based on body weight. Animals were sacrificed, prostate and seminal vesicles were weighed, and organ weights were normalized to body weight. Male rats (n=5/group) were left intact, for […]. […] Organ weights were normalized to body weight. […] The goal of the experiments was to find compounds with in vivo antiandrogen efficacies greater than 10.
Hershberger Assays. […] Rat ventral prostate (VP), seminal vesicle (SV), and levator ani (LA) muscle are AR-dependent tissues whose size (reflected by their weight) responds rapidly to castration.
Traditionally, agonists are dosed to prevent (whereby agonist is given upon castration) or restore (agonist is given after tissue atrophies) anabolic tissue weights [LA or other skeletal muscles and bone (the latter takes months not days to atrophy and restore)] to intact levels or greater, without increasing androgenic tissue (SV or VP) weights back to intact levels. […]

A short description of data set [3]: In vivo lethality observation. Particulars: 5 mg/kg.
Data set [4] in a line: Metabolic stability in mouse liver microsomes (phase I and II).
Another data set has as its system UT-1355 TNBC PDX. Kind of data set: TNBC patient-derived xenograft UT-1355 in NSG mice. It is filed as in vivo, mouse. Particulars: for tumor volume at end: in mm³ (unit assumed). In general terms: In xenograft studies the graft and the host belong to different species.
Data set [5] has as its system AR and AR-V7-positive 22RV1 xenograft. Kind of data set: 22RV1 xenograft in NSG mice. The format is in vivo, mouse.
In data set [6] the target is recombinant LBD of wildtype AR (wtAR). The note with it: read-out: Binding Ki; cited from earlier work.
Data set [7] deals with FKBP5 gene expression in LNCaP cells. Briefly: AR-target gene (FKBP5) expression in LNCaP cells, real-time PCR. The note with it: R1881-induced, FIG. 3. The format is cell-based, human. For orientation: Real-time PCR tracks product formation cycle by cycle.
The subject of data set [8] is Enzalutamide resistant VCaP (MDVR VCaP) xenograft. The note with it: cited from earlier work.
Data set [9] is described as follows: Metabolic stability in human liver microsomes (phase I and II). It is filed as in vitro ADME.
A further data set can be described thus: in vitro. The note with it: mouse, microsomes, pH 7.5.
Data set [10] deals with Enzalutamide resistant VCaP (MDVR VCaP) xenograft. Briefly: Enz-R (MDVR) VCaP xenograft in intact SRG rats. The format is in vivo, rat. Particulars: 10 mg/kg po daily, FIG. 8B.
Setting [11] is: rat, microsomes, pH 7.5, cofactors for phases I and II.
Setting [12] is: pH 7.5, MLM T1/2 (min), co-factors for phases I and II.

For `C[C@](O)(Cn1cc(Cl)cn1)C(=O)Nc1ccc(C#N)c(C(F)(F)F)c1` [Compound 16c, (S)-3-(4-Chloro-1H-pyrazol-1-yl)-N-(4-cyano-3-(trifluoromethyl)phenyl)-2-hydroxy-2-methylpropanamide], the “RLM T1/2” value in data set [1] (cofactors for phases I and II) is over 2 h. Also, the half-life at 1 µM in [1] (setting [11]) was over 2 h.
As usually defined, the pKi is the Ki on a negative log10 scale, so that one unit is a factor of ten. One may read the pIC50 as the negative decadic logarithm of the IC50, by convention in mol/L. With `C[C@](O)(Cn1cc(-c2ccc(C#N)cc2)nn1)C(=O)Nc1ccc(C#N)c(C(F)(F)F)c1` [Compound 29o, (S)—N-(4-Cyano-3-(Trifluoromethyl)Phenyl)-3-(4-(4-Cyanophenyl)-1H-1,2,3-Triazol-1-Yl)-2-Hydroxy-2-Methylpropanamide], the pKi at hAR-LBD (633-919) was 5.82. Besides, the pIC50 on CMV-hAR was 7.21.
Turning to `Cc1c(NC(=O)[C@@](C)(O)Cn2cc(C#N)cn2)ccc(C#N)c1Cl` [Compound 29k, (S)—N-(3-Chloro-4-Cyano-2-Methylphenyl)-3-(4-Cyano-1H-Pyrazol-1-Yl)-2-Hydroxy-2-Methylpropanamide], the pIC50 at CMV-hAR is 5.77.
On to `C[C@](O)(Cn1cc(C#N)cn1)C(=O)Nc1ccc(C#N)c(C(F)(F)F)c1` [Compound 16i, (S)-3-(4-Cyano-1H-pyrazol-1-yl)-N-(4-cyano-3-(trifluoromethyl)phenyl)-2-hydroxy-2-methylpropanamide], for which the “toxicity in 20 mg/kg fixed dose screening Hershberger” value in data set [2] (20 mg/kg, rats) is “toxic so no data”. In addition, in data set [3], the lethality in vivo entry is “lethality at 5 mg/kg”. For the same molecule, in [4] (setting [12]), the half-life at 1 µM is at least 0.807 h.
In the case of `C[C@](O)(Cn1cc(C#N)cn1)C(=O)Nc1cnc(C#N)c(C(F)(F)F)c1` [Compound 21c, (S)-3-(4-Cyano-1H-pyrazol-1-yl)-N-(6-cyano-5-(trifluoromethyl)pyridin-3-yl)-2-hydroxy-2-methylpropanamide], in the data set on UT-1355 TNBC PDX (60 mpk 21c, 10 60 mpk b.i.d), the “growth inhibition of UT-1355 PDX” value was “significantly inhibited the growth”, the tumor volume at start turned out to be 227 mm³ and the “tumor volume at end” value is on record as 331. Moreover, in data set [5] (oral, NSG mice), the “tumor volume at end” value is given as 1205 mm^3 and the “tumor volume at start” value stood at 301 mm^3. For the same molecule, in data set [5] (oral, NSG mice, FIGS. 11A-11B), the “tumor volume inhibition (maximum)” value was 63%.
Consider `C[C@](O)(Cn1cc(C(F)(F)F)cn1)C(=O)Nc1ccc(C#N)c(C(F)(F)F)c1` [Compound 16g, (S)—N-(4-Cyano-3-(trifluoromethyl)phenyl)-2-hydroxy-2-methyl-3-(4-(trifluoromethyl)-1H-pyrazol-1-yl)propanamide], for which the half-life at 1 µM was over 2 h in data set [1] (setting [11]) and at least 0.807 h in [4] (setting [12]).
For `C[C@](O)(Cn1ccc(F)n1)C(=O)Nc1ccc(C#N)c(C(F)(F)F)c1` [Compound 16b, (S)—N-(4-Cyano-3-(trifluoromethyl)phenyl)-3-(3-fluoro-1H-pyrazol-1-yl)-2-hydroxy-2-methylpropanamide], the half-life at 1 µM in [4] (setting [12]) was at least 0.807 h.
Consider `CC(O)c1cc(C(=O)N[C@@H](C)Cn2ccc(-c3ccc(C#N)c(Cl)c3)n2)[nH]n1` (some centres unmarked) [6 (darolutamide), darolutamide], for which the pKi in data set [6] is 7.96.
`CNC(=O)c1ccc(N2C(=S)N(c3ccc(C#N)c(C(F)(F)F)c3)C(=O)C2(C)C)cc1F` [4 (enzalutamide), enzalutamide, reference compound]: the “inhibition of FKBP5 expression” value in data set [7] is recorded as “also inhibited expression of the FKBP5 but at a slightly lower potency”. The “time to euthanasia criteria (Kaplan-Meier)” value was “reached euthanasia criteria earlier than the animals treated with 21c” with UT-1355 TNBC PDX (enzalutamide 60 mpk, FIG. 15) and “reached euthanasia criteria earlier than the animals treated with 21c” in [5] (length>2 cm or volume>2000 mm^3, FIG. 12). Also, the “effect on 22RV1 xenograft growth” value in data set [5] (oral, NSG mice) was “failed to inhibit the growth”. In addition, in data set [8] (not shown, previously published), the “effect in MDVR VCaP xenograft” value is on record as “failed to durably achieve any effect”.
As for `C[C@](O)(Cn1cc(F)cn1)C(=O)Nc1cnc(C#N)c(C(F)(F)F)c1` [Compound 21a], the “RLM CLint” value in data set [1] (rat, microsomes, 1 µM, pH 7.5) stood at 0 µL/min/mg. The “HLM CLint” value in [9] (1 µM, pH 7.5) stood at 0 µL/min/mg. The molecule further had a half-life at 1 µM in “in vitro” of at least 0.807 h.
On to `C[C@](O)(Cn1cc(F)cn1)C(=O)Nc1ccc(C#N)c(C(F)(F)F)c1` [Compound 10, (S)—N-(4-Cyano-3-(trifluoromethyl)phenyl)-3-(4-fluoro-1H-pyrazol-1-yl)-2-hydroxy-2-methylpropanamide], for which, in the data set on UT-1355 TNBC PDX (60 mpk 21c, 10 60 mpk b.i.d), the tumor volume at start came out at 427 mm³ and the “tumor volume at end” value is given as 1354. The “dose required to achieve similar results (TGI)” value in [8] (previously published for 10) is 20 to 30 mg/kg.
The molecule `C[C@](O)(Cn1cc(F)cn1)C(=O)Nc1ccc(C(N)=O)nc1` [Compound 21g, (S)-5-(3-(4-Fluoro-1H-pyrazol-1-yl)-2-hydroxy-2-methylpropanamido)picolinamide] came in with a half-life at 1 µM in data set [4] (pH 7.5) of over 6 h.
For the molecule `C[C@](O)(Cn1cc(C#N)cn1)C(=O)Nc1ccc(C#N)cc1Cl` [Compound 29j, (S)—N-(2-chloro-4-cyanophenyl)-3-(4-cyano-1H-pyrazol-1-yl)-2-hydroxy-2-methylpropanamide], on CMV-hAR, the pIC50 was 5.95.
`C[C@](O)(Cn1cc(Br)c(F)n1)C(=O)Nc1ccc(C#N)c(C(F)(F)F)c1` [Compound 26a, (S)-3-(4-Bromo-3-fluoro-1H-pyrazol-1-yl)-N-(4-cyano-3-(trifluoromethyl)phenyl)-2-hydroxy-2-methylpropanamide]: the half-life at 1 µM in data set [1] (setting [11]) was over 2 h; in [9] (pH 7.5, cofactors for phases I and II, read-out: HLM T1/2), over 2 h. Also, the “tumor weights at the end of the study” value in [10] is on record as “significant inhibition”. Moreover, in data set [2] (20 mg/kg po daily, intact rats, FIG. 7B), the SV weight reduction is about 50%.
In the case of `C[C@](O)(Cn1ccc(C(F)(F)F)n1)C(=O)Nc1ccc(C#N)c(C(F)(F)F)c1` [Compound 16h, (S)—N-(4-Cyano-3-(trifluoromethyl)phenyl)-2-hydroxy-2-methyl-3-(3-(trifluoromethyl)-1H-pyrazol-1-yl)propanamide], the half-life at 1 µM in [4] (setting [12]) is at least 0.807 h.
Take `C[C@@](O)(Cn1cc(F)cn1)C(=O)Nc1ccc(C#N)c(C(F)(F)F)c1` [Compound 29a, (R)—N-(4-Cyano-3-(trifluoromethyl)phenyl)-3-(4-fluoro-1H-pyrazol-1-yl)-2-hydroxy-2-methylpropanamide]: the half-life at 1 µM in data set [4] (pH 7.5) is at least 0.807 h.
Consider `C[C@](O)(Cn1cc(F)cn1)C(=O)Nc1ccc(C#N)cc1Cl` [Compound 29i, (S)—N-(2-Chloro-4-Cyanophenyl)-3-(4-Fluoro-1H-Pyrazol-l-Yl)-2-Hydroxy-2-Methylpropanamide], for which, at CMV-hAR, the pIC50 is 5.91.
